Experimental data published in US8759481B2, “Peptide vaccines for cancers expressing tumor-associated antigens” (Oncotherapy Science, Inc., priority 2007, dated 2014).

Test system: CD8+ T cells (HLA-A*0201 donors)
Assay: In vitro CTL induction with peptide-pulsed DCs (positive donor number)
Format: cell-based, human
Settings: HLA-A*0201, 9-mer peptides derived from INHBB; positive/total donors
Procedure, shortened: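 Monocyte-derived DCs (GM-CSF/IL-4, 7 days) pulsed with 20 μg/ml peptide plus β2-microglobulin, MMC-inactivated, co-cultured 1:20 with autologous CD8+ T cells with IL-7, then IL-2; restimulated days 7 and 14. CTL activity tested against peptide-pulsed T2 cells on day 21; value = positive donors/total donors.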

VQCDSCQEL
positive donor number: 0/1
